For one molecule, Ki results are on record in PMC4415882 (Biochemistry, 2013).

Assay [1] concerns the target NPP (nucleotide pyrophosphatase/phosphodiesterase) (Xanthomonas citri, UniProt A0A0U5FM15, T90S). As to conditions: read-out: average; average over substrates pNPP, Me-pNPP, bis-pNPP, dT-5'-pNPP (subsaturating); 0.1 M Tris-HCl pH 8.0, 0.5 M NaCl, 100 µM ZnCl2, 25 °C; competitive.
Assay [2] concerns the target NPP (nucleotide pyrophosphatase/phosphodiesterase) (Xanthomonas citri, UniProt A0A0U5FM15, L123A). The following applies: read-out: average; average over substrates pNPP, Me-pNPP, bis-pNPP, dT-5'-pNPP (subsaturating); 0.1 M Tris-HCl pH 8.0, 0.5 M NaCl, 100 µM ZnCl2, 25 °C; competitive.

On to `[O]=[V]([OH])([OH])[OH]` [vanadate], for which the Ki in assay [1] amounted to 340 ± 140 µM; in assay [2] it was 154 ± 8 µM.
